Here are results for one substance from US20080155704A1, “Methods and Compositions for Determining in vivo Activity of BiP” (King's College London, priority 2006, published 2008).

The test system of the test is human peripheral blood mononuclear cells. Kind of test: Human PBMC injected intraperitoneally into SCID mice. Type of test: in vivo, human cells in SCID mice. Here is the method:
Human peripheral blood mononuclear cells (50.106/mouse), either with concomitant BiP (100 μg/mouse) or with PBS/vehicle, were injected into the peritoneal cavity of SCID mice. After 11d the cells were flushed from the peritoneal cavity and investigated by flow cytometry. (A) Intracellular expression of IL-4 was measured 3 h post ex vivo stimulation with PMA (10 ng/ml) and ionomycin (1 μg/ml) in the presence of monensin. (B) surface expression of HLA-DR CD4+ cells. The mean and standard deviation of 3 experiments are shown
The biomarkers were investigated in two situations: 1) when 50.10^6 human peripheral blood mononuclear cells were injected intraperitoneally, with or without BiP (100 μg), into a mouse and the cells were harvested from the peritoneum 11 days later; or (2) BiP (200 μg) was injected intravenously into a mouse and the spleens and lymph nodes removed 11 days later.
In each of three experiments, two/three mice were injected either with BiP treated human peripheral blood mononuclear cells (hPBMC) (50.10^6/mouse) and or untreated hPBMC. The mice were sacrificed 11 days later, the peritoneal cavity washed out and the cells collected for immunofluorescence and flow cytometric analysis. The cells were particularly stained for TH2 markers and intracellular anti-inflammatory cytokines.
SCID mice were given an intraperitoneal injection of human PBMC (50.106/mouse) in the presence or absence of BiP (100 μg/mouse) and sacrificed 11d later when the peritoneum was washed out with PBS and the remaining cells collected for analysis. Cells were examined for the intracellular presence of IL-4 or IFNγ and for cell surface molecules such as HLA-DR and CD86.

The mark [1] stands for this setting: Example 4, hPBMC recovered from peritoneum after 11 days.

For the substance “BiP: 78 kD endoplasmic reticulum chaperone protein as disclosed in WO 00/21995; recombinant human protein”, under setting [1], the “cells with intracellular IFNγ” value amounted to 23.5±4%, the “cells with intracellular IL-4” value was found to be 16.2±0.5% and the “cells with intracellular IL-5” value came to 29±7%. Moreover, the “intracellular IL-4 in CD4+ cells” value (Example 10, BiP 100 μg/mouse, 11 days, ex vivo PMA and ionomycin 3 h, n=5) turned out to be 38.2±20%. The “surface HLA-DR on CD4 T cells” value (Example 10, BiP 100 μg/mouse, 11 days, n=5) amounted to 50±6.2%.
